One experiment has as its system androgen receptor (AR) in LNCaP and/or VCaP cells. Description: Androgen Receptor ELISA assay (AR degradation). Format: cell-based. Particulars: LNCaP and/or VCaP cells; 5 hours incubation; media with R1881; read-out: DC50 Code* (degradation of AR ELISA). In outline: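 VCaP cells grown ≥3 days, then treated 5 h with compound in media containing 1 nM R1881 (10× stock). Cells lysed and AR quantified by sandwich ELISA (mouse AR detection Ab, HRP anti-mouse, TMB). DC50 and Dmax derived from AR degradation.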
In general terms: In an ELISA, binding on a coated surface is turned into a signal by an enzyme label.
Usually DC50 stands for the concentration at which degradation of the target reaches its halfway point. In the case of `COc1cc(O[C@@H]2CC[C@H](NC(=O)c3cnc(N4CCC(CN(C(C)C)[C@H]5C[C@H](Oc6ccc7c(c6)C(=O)N(C6CCC(=O)NC6=O)C7=O)C5)CC4)cn3)C2)ccc1C#N` (stereo partly drawn) [Compound 11, N-((1S,3R)-3-(4-cyano-3-methoxyphenoxy)cyclopentyl)-5-(4-((((1r,3S)-3-((2-(2,6-dioxopiperidin-3-yl)-1,3-dioxoisoindolin-5-yl)oxy)cyclobutyl) (isopropyl)amino)methyl)piperidin-1-yl)pyrazine-2-carboxamide], the half-maximal degradation concentration (DC50) is over 100 nM.
Same read-out and setting: the result for `N#Cc1ccc(O[C@H]2CC[C@H](NC(=O)c3ccc(N4CCC(CN[C@H]5C[C@H](Oc6ccc7c(c6)C(=O)N(C6CCC(=O)NC6=O)C7=O)C5)CC4)nn3)CC2)cc1Cl` (mixture of isomers) [Compound 51, rac-N-((1r,4r)-4-(3-chloro-4-cyanophenoxy)cyclohexyl)-6-(4-((((1r,3r)-3-((2-(2,6-dioxopiperidin-3-yl)-1,3-dioxoisoindolin-5-yl)oxy)cyclobutyl)amino)methyl)piperidin-1-yl)pyridazine-3-carboxamide] reads under 1 nM.
Turning to `CCOc1cc(O[C@H]2CC[C@H](NC(=O)c3cnc(N4CC(CN(C(C)C)[C@H]5C[C@H](Oc6ccc7c(c6)C(=O)N(C6CCC(=O)NC6=O)C7=O)C5)C4)nc3)CC2)ccc1C#N` (stereo partly shown) [Compound 70, N-((1r,4r)-4-(4-cyano-3-ethoxyphenoxy)cyclohexyl)-2-(3-((((1r,3r)-3-((2-(2,6-dioxopiperidin-3-yl)-1,3-dioxoisoindolin-5-yl)oxy)cyclobutyl) (isopropyl)amino)methyl)azetidin-1-yl)pyrimidine-5-carboxamide], the DC50 was 1 to 10 nM.
With `Cc1cc(O[C@H]2CC[C@H](NC(=O)c3cnc(N4CCC(CN(C(C)C)[C@H]5C[C@H](Oc6cc(F)c7c(c6)C(=O)N(C6CCC(=O)NC6=O)C7=O)C5)CC4)cn3)CC2)cc(C)c1C#N` (stereo partly shown) [Compound 46, N-((1r,4r)-4-(4-cyano-3,5-dimethylphenoxy)cyclohexyl)-5-(4-((((1r,3r)-3-((2-(2,6-dioxopiperidin-3-yl)-7-fluoro-1,3-dioxoisoindolin-5-yl)oxy)cyclobutyl) (isopropyl)amino)methyl)piperidin-1-yl)pyrazine-2-carboxamide], the DC50 was under 1 nM.
For `COc1cc(O[C@H]2CC[C@H](NC(=O)c3cnc(N4CC5(CC(CN(C(C)C)[C@H]6C[C@H](Oc7ccc8c(c7)C(=O)N(C7CCC(=O)NC7=O)C8=O)C6)C5)C4)cn3)CC2)ccc1C#N` (stereo partly shown) [Compound 56, N-((1r,4r)-4-(4-cyano-3-methoxyphenoxy)cyclohexyl)-5-(6-((((1r,3r)-3-((2-(2,6-dioxopiperidin-3-yl)-1,3-dioxoisoindolin-5-yl)oxy)cyclobutyl) (isopropyl)amino)methyl)-2-azaspiro[3.3]heptan-2-yl)pyrazine-2-carboxamide], the DC50 is under 1 nM.

The experiment is the same for the next values; noted with them: degradation of AR ELISA in LNCaP and/or VCaP cells; Table 2C; read-out: DC50 Code*.
Turning to `Cc1cc(O[C@H]2C(C)(C)[C@H](NC(=O)c3ccc(N4CCC(CN(CCN5CCOCC5)[C@H]5C[C@H](Oc6ccc7c(c6)C(=O)N(C6CCC(=O)NC6=O)C7=O)C5)CC4)cc3)C2(C)C)cc(C)c1C#N` (mixture of isomers) [compound 188, rac-N-((1r,3r)-3-(4-cyano-3,5-dimethylphenoxy)-2,2,4,4-tetramethylcyclobutyl)-4-(4-((((1r,3r)-3-((2-(2,6-dioxopiperidin-3-yl)-1,3-dioxoisoindolin-5-yl)oxy)cyclobutyl)(2-morpholinoethyl)amino)methyl)piperidin-1-yl)benzamide], the DC50 is under 1 nM.
Consider `Cc1cc(O[C@H]2C(C)(C)[C@H](NC(=O)c3ccc(N4CCC(CN(C(C)C)[C@H]5C[C@H](Oc6ccc7c(c6)C(=O)N([C@H]6CCC(=O)NC6=O)C7=O)C5)CC4)cc3)C2(C)C)cc(C)c1C#N` [compound 205, N-((1r,3r)-3-(4-cyano-3,5-dimethylphenoxy)-2,2,4,4-tetramethylcyclobutyl)-4-(4-((((1S,3r)-3-((2-((S)-2,6-dioxopiperidin-3-yl)-1,3-dioxoisoindolin-5-yl)oxy)cyclobutyl) (isopropyl)amino)methyl)piperidin-1-yl)benzamide], for which the DC50 was under 1 nM.
Same read-out and setting: the result for `COc1cc(O[C@H]2C[C@H](N(CC3CCN(c4ncc(C(=O)N[C@H]5C(C)(C)[C@H](Oc6cc(C)c(C#N)c(C)c6)C5(C)C)cn4)CC3)C(C)=O)C2)cc2c1C(=O)N(C1CCC(=O)NC1=O)C2=O` (stereo partly shown) [compound 81, N-((1r,3r)-3-(4-cyano-3,5-dimethylphenoxy)-2,2,4,4-tetramethylcyclobutyl)-2-(4-((N-((1r,3r)-3-((2-(2,6-dioxopiperidin-3-yl)-7-methoxy-1,3-dioxoisoindolin-5-yl)oxy)cyclobutyl)acetamido)methyl)piperidin-1-yl)pyrimidine-5-carboxamide] reads under 1 nM; that for `COc1cc(O[C@H]2C(C)(C)[C@H](NC(=O)c3ccc(N4CCC(CN(C(C)C)[C@H]5C[C@H](Oc6cc(OC)c7c(c6)C(=O)N(C6CCC(=O)NC6=O)C7=O)C5)CC4)nn3)C2(C)C)ccc1C#N` (stereo partly shown) [compound 102, N-((1r,3r)-3-(4-cyano-3-methoxyphenoxy)-2,2,4,4-tetramethylcyclobutyl)-6-(4-((((1r,3r)-3-((2-(2,6-dioxopiperidin-3-yl)-7-methoxy-1,3-dioxoisoindolin-5-yl)oxy)cyclobutyl) (isopropyl)amino)methyl)piperidin-1-yl)pyridazine-3-carboxamide], under 1 nM; that for `CC(C)N(CC1CCN(c2cnc(C(=O)N[C@H]3C(C)(C)[C@H](Oc4ccc(C#N)c(Cl)c4)C3(C)C)cn2)CC1)[C@H]1C[C@H](Oc2ccc3c(c2)CN(C2CCC(=O)NC2=O)C3=O)C1` (stereo partly shown) [compound 113, N-((1r,3r)-3-(3-chloro-4-cyanophenoxy)-2,2,4,4-tetramethylcyclobutyl)-5-(4-((((1r,3r)-3-((2-(2,6-dioxopiperidin-3-yl)-1-oxoisoindolin-5-yl)oxy)cyclobutyl) (isopropyl)amino)methyl)piperidin-1-yl)pyrazine-2-carboxamide], under 1 nM.
On the same count and under the same terms, to `CC1(C)[C@H](NC(=O)c2cnc(N3CCC(CN(CCN4CCOCC4)[C@H]4C[C@H](Oc5ccc6c(c5)C(=O)N(C5CCC(=O)NC5=O)C6=O)C4)CC3)cn2)C(C)(C)[C@H]1Oc1ccc(C#N)c(C#N)c1` (stereo partly shown) [compound 233, N-((1r,3r)-3-(3,4-dicyanophenoxy)-2,2,4,4-tetramethylcyclobutyl)-5-(4-((((1r,3r)-3-((2-(2,6-dioxopiperidin-3-yl)-1,3-dioxoisoindolin-5-yl)oxy)cyclobutyl)(2-morpholinoethyl)amino)methyl)piperidin-1-yl)pyrazine-2-carboxamide] belongs under 1 nM; to `CC1(C)[C@H](NC(=O)c2ccc(N3CCC(CN(CCN4CCOCC4)[C@H]4C[C@H](Oc5ccc6c(c5)C(=O)N(C5CCC(=O)NC5=O)C6=O)C4)CC3)cc2)C(C)(C)[C@H]1Oc1ccc(C#N)c(Cl)c1` (stereo partly shown) [compound 219, N-((1r,3r)-3-(3-chloro-4-cyanophenoxy)-2,2,4,4-tetramethylcyclobutyl)-4-(4-((((1r,3r)-3-((2-(2,6-dioxopiperidin-3-yl)-1,3-dioxoisoindolin-5-yl)oxy)cyclobutyl)(2-morpholinoethyl)amino)methyl)piperidin-1-yl)benzamide], under 1 nM.
Same read-out and setting: the result for `CC(C)N(CC1CN(c2ccc(C(=O)N[C@H]3C(C)(C)[C@H](Oc4ccc(C#N)c(Cl)c4)C3(C)C)cc2)C1)[C@H]1C[C@H](Oc2ccc3c(c2)C(=O)N(C2CCC(=O)NC2=O)C3=O)C1` (mixture of isomers) [compound 198, rac-N-((1r,3r)-3-(3-chloro-4-cyanophenoxy)-2,2,4,4-tetramethylcyclobutyl)-4-(3-((((1r,3r)-3-((2-(2,6-dioxopiperidin-3-yl)-1,3-dioxoisoindolin-5-yl)oxy)cyclobutyl) (isopropyl)amino)methyl)azetidin-1-yl)benzamide] reads under 1 nM.
As to `Cc1cc(O[C@H]2C(C)(C)[C@H](NC(=O)c3cnc(N4CC5(CC(CN(C(C)C)[C@H]6C[C@H](Oc7ccc8c(c7)C(=O)N(C7CCC(=O)NC7=O)C8=O)C6)C5)C4)cn3)C2(C)C)cc(C)c1C#N` (stereo partly shown) [compound 175, N-((1r,3r)-3-(4-cyano-3,5-dimethylphenoxy)-2,2,4,4-tetramethylcyclobutyl)-5-(6-((((1r,3r)-3-((2-(2,6-dioxopiperidin-3-yl)-1,3-dioxoisoindolin-5-yl)oxy)cyclobutyl) (isopropyl)amino)methyl)-2-azaspiro[3.3]heptan-2-yl)pyrazine-2-carboxamide], the DC50 is under 1 nM.

Staying with this experiment, now noted: degradation of AR ELISA in LNCaP and/or VCaP cells; read-out: DC50 Code*.
On to `COc1cc(O[C@H]2C[C@H](N(CC(F)F)CC3CCN(c4ccc(C(=O)N[C@H]5C(C)(C)[C@H](Oc6cc(C)c(C#N)c(C)c6)C5(C)C)cc4)CC3)C2)cc2c1C(=O)N(C1CCC(=O)NC1=O)C2=O` (stereo partly shown) [compound 242, N-((1r,3r)-3-(4-cyano-3,5-dimethylphenoxy)-2,2,4,4-tetramethylcyclobutyl)-4-(4-(((2,2-difluoroethyl)((1r,3r)-3-((2-(2,6-dioxopiperidin-3-yl)-7-methoxy-1,3-dioxoisoindolin-5-yl)oxy)cyclobutyl)amino)methyl)piperidin-1-yl)benzamide], for which the DC50 lay within 1 to 10 nM.
The same measure, in the same setting: the result for `Cc1cc(O[C@H]2C(C)(C)[C@H](NC(=O)c3cnc(N4CCC(CN(C(C)C)[C@H]5C[C@H](Oc6ccc7c(c6)C(=O)N(C6CCC(=O)N(COP(=O)(O)OCOC(=O)OC(C)C)C6=O)C7=O)C5)CC4)cn3)C2(C)C)cc(C)c1C#N` (mixture of isomers) [compound 247, rac-((((3-(5-((1r,3r)-3-(((1-(5-(((1r,3r)-3-(4-cyano-3,5-dimethylphenoxy)-2,2,4,4-tetramethylcyclobutyl)carbamoyl)pyrazin-2-yl)piperidin-4-yl)methyl)(isopropyl)amino)cyclobutoxy)-1,3-dioxoisoindolin-2-yl)-2,6-dioxopiperidin-1-yl)methoxy)(hydroxy)phosphoryl)oxy)methyl isopropyl carbonate] reads over 100 nM.

Source of the values: patent US20260053932A1, “COMPOUNDS AND METHODS FOR THE TARGETED DEGRADATION OF ANDROGEN RECEPTOR AND ASSOCIATED METHODS OF USE” (Arvinas Operations, Inc., priority 2020, published 2026).
